The values below are quoted from earlier work in patent US20170108488A1, “Array and Method of Use” (Quick Biology, Inc., priority 2015, published 2017).

In one series the test system is SB-2 tumor xenograft. The following applies: in combination with the MEK inhibitor GSK1120212; NRAS mutant melanoma.
For the next series, the target named is BRAF (Homo sapiens, UniProt P15056, V600E). The note with it: melanomas with BRAF activating mutations.
Sequence of BRAF (P15056 whole entry V600E): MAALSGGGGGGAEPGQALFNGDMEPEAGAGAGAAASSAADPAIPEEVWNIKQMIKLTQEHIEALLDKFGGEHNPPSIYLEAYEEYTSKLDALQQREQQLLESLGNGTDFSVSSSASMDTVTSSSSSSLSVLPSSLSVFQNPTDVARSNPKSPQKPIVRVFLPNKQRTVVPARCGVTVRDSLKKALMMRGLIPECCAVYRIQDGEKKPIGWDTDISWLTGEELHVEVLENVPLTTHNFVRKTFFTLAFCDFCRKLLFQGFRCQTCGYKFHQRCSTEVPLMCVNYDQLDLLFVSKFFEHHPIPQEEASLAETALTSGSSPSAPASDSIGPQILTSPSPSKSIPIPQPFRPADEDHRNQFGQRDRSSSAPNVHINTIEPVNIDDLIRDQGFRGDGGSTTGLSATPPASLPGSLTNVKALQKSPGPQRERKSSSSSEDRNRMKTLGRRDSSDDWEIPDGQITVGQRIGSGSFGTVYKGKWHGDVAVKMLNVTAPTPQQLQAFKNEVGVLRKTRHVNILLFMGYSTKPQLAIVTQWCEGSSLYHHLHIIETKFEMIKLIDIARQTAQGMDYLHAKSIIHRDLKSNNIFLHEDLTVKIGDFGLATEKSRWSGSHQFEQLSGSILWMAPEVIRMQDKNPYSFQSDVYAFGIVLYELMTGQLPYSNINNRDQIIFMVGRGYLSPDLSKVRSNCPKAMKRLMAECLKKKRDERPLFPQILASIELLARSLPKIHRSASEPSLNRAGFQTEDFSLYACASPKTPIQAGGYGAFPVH

On to `CC(=O)c1c(C)c2cnc(Nc3ccc(N4CCNCC4)cn3)nc2n(C2CCCC2)c1=O` [PD-0332991], for which the “tumor response in SB-2 tumor xenograft” value in the series with SB-2 tumor xenograft is “tumor regression was achieved”.
Consider `CCCS(=O)(=O)Nc1ccc(F)c(C(=O)c2c[nH]c3ncc(-c4ccc(Cl)cc4)cc23)c1F` [PLX4032], for which, at BRAF, the “success rate in melanomas” value was “high success rate”.
